Experimental data reported in ChEMBL document CHEMBL3351866, “Indole alkaloid glycosides from the aerial parts of Strobilanthes cusia” (2014).
Converted amounts (≈) assume the structure as drawn. The source made the active and inactive calls. No cut-off for these calls is given here.

Tested on: Staphylococcus aureus
Experiment: Antibacterial activity against Staphylococcus aureus assessed as growth inhibition after 24 hrs by broth microdilution assay
Format: functional

MIC [µM] | SMILES | Activity
– | COC(=O)c1ccccc1NC(=O)c1[nH]c2ccccc2c1O[C@@H]1O[C@H](CO)[C@@H](O)[C@H](O)[C@H]1O | inactive
– | COc1ccc(CCO[C@@H]2O[C@H](CO)[C@@H](OC(=O)/C=C/c3ccc(O)c(OC)c3)[C@H](O[C@@H]3O[C@@H](C)[C@H](O)[C@@H](O)[C@H]3O)[C@H]2O)cc1O | inactive
– | COC(=O)/C=C/c1[nH]c2ccccc2c1O[C@@H]1O[C@H](CO)[C@@H](O)[C@H](O)[C@H]1O | inactive
– | C[C@@H]1O[C@@H](O[C@@H]2[C@@H](O)[C@H](OCCc3ccc(O)c4c3[C@]3(Nc5ccccc5C3=O)[C@@]3(Nc5ccccc5C3=O)O4)O[C@H](CO)[C@H]2OC(=O)/C=C/c2ccc(O)c(O)c2)[C@H](O)[C@H](O)[C@H]1O | inactive
– | C[C@@H]1O[C@@H](O[C@@H]2[C@@H](O)[C@H](OCCc3ccc(O)c4c3[C@@]3(Nc5ccccc5C3=O)[C@]3(Nc5ccccc5C3=O)O4)O[C@H](CO)[C@H]2OC(=O)/C=C/c2ccc(O)c(O)c2)[C@H](O)[C@H](O)[C@H]1O | inactive
– | C[C@@H]1O[C@@H](O[C@@H]2[C@@H](O)[C@H](OCCc3ccc(O)c(O)c3)O[C@H](CO)[C@H]2OC(=O)/C=C/c2ccc(O)c(O)c2)[C@H](O)[C@H](O)[C@H]1O | inactive
– | COc1ccc(CCO[C@@H]2O[C@H](CO)[C@@H](OC(=O)/C=C/c3ccc(O)c(O)c3)[C@H](O[C@@H]3O[C@@H](C)[C@H](O)[C@@H](O)[C@H]3O)[C@H]2O)cc1O | inactive
– | COc1ccc(CCO[C@@H]2O[C@H](COC(=O)/C=C/c3ccc(O)c(OC)c3)[C@@H](O)[C@H](O[C@@H]3O[C@@H](C)[C@H](O)[C@@H](O)[C@H]3O)[C@H]2O)cc1O | inactive
– | C[C@@H]1O[C@@H](O[C@@H]2[C@@H](O)[C@H](OCCc3ccc(O)c(O)c3)O[C@H](CO)[C@@H]2OC(=O)/C=C/c2ccc(O)c(O)c2)[C@H](O)[C@H](O)[C@H]1O | inactive
62.5 (≈ 26.5 µg/mL) | O=C1/C(=C2/C(=O)N([C@@H]3O[C@H](CO)[C@@H](O)[C@H](O)[C@H]3O)c3ccccc32)Nc2ccccc21 | –
